Measurements taken from PubChem BioAssay (NCI).
Several values for one entry are separate records, joined by “and”; a condition that tells them apart may be missing. Identical values can stand only once.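 All cell lines were grown in 96-well plates and treated with compound for 48 hours. GI50 marks 50% less growth. TGI denotes the concentration required for complete inhibition of growth.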

Experiments:
Assay in all cases: NCI tumour cell line growth inhibition, 48 h
[1] = tested on: 786-0 renal
[2] = tested on: COLO 205 colon
[3] = tested on: IGROV1 ovarian
[4] = tested on: MALME-3M melanoma
[5] = tested on: MDA-MB-231 breast
[6] = tested on: MDA-N
[7] = tested on: MOLT-4 leukemia
[8] = tested on: OVCAR-3 ovarian
[9] = tested on: OVCAR-8 ovarian
[10] = tested on: SK-MEL-28 melanoma

Structure (SMILES)	TGI [1]	TGI [2]	TGI [3]	TGI [4]	TGI [5]	TGI [6]	TGI [7]	TGI [8]	TGI [9]	TGI [10]	GI50 [2]	GI50 [3]	GI50 [4]	GI50 [6]	GI50 [8]	GI50 [10]	GI50 [5] [µM]	GI50 [7] [µM]	GI50 [9] [µM]
CN(c1ccccc1Cl)S(=O)(=O)c1ccc([N+](=O)[O-])cc1	> 100 µM	> 100 µM	> 100 µM	> 100 µM	> 100 µM	> 100 µM	> 100 µM	> 100 µM	> 100 µM	> 100 µM									
CC(C)C(/C=C/c1ccc(Cl)c(Cl)c1)=N\NC(=O)N/N=C(/C=C/c1ccc(Cl)c(Cl)c1)C(C)C	> 100 µM	> 100 µM	> 100 µM	> 100 µM	> 100 µM	> 100 µM	> 100 µM	> 100 µM	> 100 µM	> 100 µM									
CCCCCCCCCCCCCCCC(=O)N(CCCCCCCCCCC(=O)O)CC(O)C(O)C(OC1OC(CO)C(O)C(O)C1O)C(O)CO (stereo not drawn)	> 100 µM	32.6 µM	> 100 µM	36.3 µM	> 100 µM	> 100 µM	46.4 µM	> 100 µM	66 µM	34.6 µM									
O=c1[nH]nc(Cc2ccccc2)n1CCO	> 100 µM	> 100 µM	> 100 µM	> 100 µM	> 100 µM	> 100 µM	> 100 µM	> 100 µM	> 100 µM	> 100 µM									
CC1OC(OC2C(OC(=O)[C@]34CCC(C)(C)C[C@H]3C3=CC[C@@H]5[C@@]6(C)CC[C@H](OC7OC(C(=O)O)C(O)C(OC8OCC(O)C(O)C8O)C7O)C(C)(C)[C@@H]6CC[C@@]5(C)[C@]3(C)CC4)OCC(O)C2O)C(O)C(OC2OCC(O)C(O)C2O)C1OC1OCC(O)C(OC2OCC(O)C(O)C2O)C1O (stereo partly drawn)	25.7 µM and 43 µM	3.63 µM and 20.4 µM	32.6 µM and > 100 µM	25.7 µM and 91 µM	14.2 µM and 12.9 µM	19.8 µM and 31.8 µM	25 µM and 49.8 µM	50.4 µM and > 100 µM	27.7 µM and 43.1 µM	15.9 µM and 30.8 µM	1.8 µM and 7.67 µM	11.8 µM and 30.9 µM	10.6 µM and 28.6 µM	7.14 µM and 16.4 µM	13 µM and 35 µM	5.5 µM and 16.3 µM			
Cc1ccc(/C(O)=C/c2nc3ccccc3s/c2=N/CS(=O)(=O)c2ccc(C)cc2)cc1	> 10 µM	> 10 µM	> 10 µM	> 10 µM	> 10 µM	> 10 µM	> 10 µM	> 10 µM	> 10 µM	> 10 µM									
CCOC(=O)C(Cc1cccn1C(=O)OC(C)(C)C)[N+](=O)[O-] (stereo not drawn)	51.3 µM	41.3 µM	43.3 µM	75.4 µM	44.7 µM	90.4 µM	50.4 µM	98.2 µM	93 µM	69 µM									
O=C(O)Cc1ccc2[nH]c(O)c(C3=Nc4ccccc4C3=O)c2c1	> 100 µM	92.1 µM	48.2 µM	> 100 µM	> 100 µM	> 100 µM	> 100 µM	67.3 µM	> 100 µM	> 100 µM									
CC1=Nc2sc3c(c2C2=NCCN12)CCCC3	46 µM	79.1 µM	60.7 µM	71.3 µM	71.2 µM	44.2 µM	60.5 µM	66.8 µM	50.6 µM	65.4 µM									
Clc1ccc(C2Nc3ccccc3C3=NCCN32)cc1 (stereo not drawn)	48.9 µM	25.7 µM	49.2 µM	32.1 µM	> 100 µM	39.8 µM	> 100 µM	> 100 µM	38.3 µM	34.6 µM									
CCCCCCCCCCC1OC([C@@H](O)CC[C@H](O)C2CC[C@@H](CCCCCCCC(O)CC3=CC(C)OC3=O)O2)CCC1O (stereo partly drawn)	> 25 µM	> 19.8 µM	> 25 µM	> 25 µM	> 25 µM	> 25 µM	> 13.9 µM	> 23.5 µM	> 25 µM	> 25 µM	5.47 µM	10.6 µM			1.69 µM	5.34 µM	5.88	2.76	9.96
Nc1nn2c(nc(N)c3c(N)[nH]nc32)c1N=Nc1ccc(Br)cc1	> 95.3 µM	> 100 µM	> 100 µM	18.4 µM	1.87 µM	9.88 µM	> 25.9 µM	> 78 µM	> 97.1 µM	> 94.2 µM									
O=C(O)CC1NCc2cc3ccccc3nc21 (stereo not drawn)	> 100 µM	> 100 µM	> 100 µM	> 100 µM	> 100 µM	> 100 µM	> 100 µM	> 100 µM	> 100 µM	> 100 µM									
Cc1cn([C@@H]2O[C@H](CO[Si](C)(C)C(C)(C)C)[C@]3(O[C@H]3C(=O)NN)[C@H]2O[Si](C)(C)C(C)(C)C)c(=O)[nH]c1=O	14.7 µM	6.74 µM	18.6 µM	11.8 µM	13.7 µM	13.3 µM	6.02 µM	15.9 µM	19.8 µM	25.3 µM									
COc1cc2c(cc1OC)C1(COc3cc(O)c(O)c(O)c3C1=O)C2 (stereo not drawn)	> 50 µM	> 50 µM	> 50 µM	> 50 µM	> 50 µM	> 50 µM	> 50 µM	> 50 µM	> 50 µM	> 50 µM									
COc1c(O)cc2c(c1O)C(=O)/C(=C/c1ccc(O)cc1)CO2	75.5 µM	32.5 µM	80.8 µM	96.4 µM	> 100 µM	> 100 µM	> 100 µM	55.5 µM	39.6 µM	35.3 µM									
COc1cc2c(=O)cnoc2cc1O	> 100 µM	> 100 µM	> 100 µM	> 100 µM	> 100 µM	> 100 µM	> 100 µM	> 100 µM	> 100 µM	> 100 µM									
